Experimental data from the supplement of paper PMC11061612.

Legend:
[1] = test system: KMRC-1 (Kidney Carcinoma); assay: combination Emax (second highest fraction inhibited in the dose matrix, 72 h); higher = more inhibition; extreme values may be limits of the assay
Outline: (§1)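 Cell lines in DMEM/F12 or RPMI with 10% FBS were plated in 1536-well plates, held 24 hours at 37°C, 5% CO2, then given two-drug dose matrices for 72 hours (DMSO typically 0.2%). Viability was read by CellTiter-Glo 2.0 luminescence and scaled as inhibition from 0 (vehicle wells) to 1 (blank wells). Combination Emax is the second-highest inhibition in the matrix; Bliss excess is observed combination effect minus expected EA + EB − EA·EB, EA and EB being single-agent effects.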

[2] = test system: A4-Fuk (B-Lymphoblastic Leukemia); assay: as above
Outline: as §1

[3] = test system: MOLT-4 (T-Lymphoblastic Leukemia); assay: as above
Outline: as §1

[4] = test system: ME-180 (Cervical Carcinoma); assay: as above
Outline: as §1

[5] = test system: ML-2 (Acute Myeloid Leukemia); assay: as above
Outline: as §1

[6] = test system: MOG-G-UVW (Low Grade Glioma); assay: as above
Outline: as §1

[7] = test system: SNU-387 (Hepatocellular Carcinoma); assay: as above
Outline: as §1

[8] = test system: NCI-H1355 (Lung Adenocarcinoma); assay: as above
Outline: as §1

[9] = test system: SW872 (Other Solid Carcinomas); assay: as above
Outline: as §1

[10] = test system: COLO-679 (Melanoma); assay: as above
Outline: as §1

[11] = test system: KGN (Other Solid Carcinomas); assay: as above
Outline: as §1

[12] = test system: EFO-21 (Ovarian Carcinoma); assay: as above
Outline: as §1

[13] = test system: Mo-T (Other Blood Carcinomas); assay: as above
Outline: as §1

[14] = test system: SW982 (Other Solid Carcinomas); assay: as above
Outline: as §1

[15] = test system: COLO-668 (Small Cell Lung Carcinoma); assay: as above
Outline: as §1

[16] = test system: KMRC-1 (Kidney Carcinoma); assay: Bliss excess, mean over the matrix (fraction); higher = more synergy
Outline: as §1

[17] = test system: NCI-H522 (Lung Adenocarcinoma); assay: as above
Outline: as §1

[18] = test system: ML-2 (Acute Myeloid Leukemia); assay: as above
Outline: as §1

[19] = test system: MOG-G-UVW (Low Grade Glioma); assay: as above
Outline: as §1

[20] = test system: SNU-387 (Hepatocellular Carcinoma); assay: as above
Outline: as §1
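Wherever Bliss excess, mean over the matrix is given: after 72 h of two-drug dosing.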

Row | Compound | combination Emax [1] | combination Emax [2] | combination Emax [3] | combination Emax [4] | combination Emax [5] | combination Emax [6] | combination Emax [7] | combination Emax [8] | combination Emax [9] | combination Emax [10] | combination Emax [11] | combination Emax [12] | combination Emax [13] | combination Emax [14] | combination Emax [15] | Bliss excess [16] | Bliss excess [17] | Bliss excess [18] | Bliss excess [19] | Bliss excess [20]
1 | Cc1cc2ncnn2cc1Nc1ncc2c(n1)n(C1CCOCC1)c(=O)n2C [AZD7648] + CCN(CCO)CCCOc1ccc2c(Nc3cc(CC(=O)Nc4cccc(F)c4)[nH]n3)ncnc2c1 [AZD2811] (first compound max 10 µM, 7x7, partner max 1 µM) | 0.267 | 0.699 | 0.965 | 0.389 | 0.832 | 0.686 | 0.254 | 0.519 | 0.271 | 0.203 | 0.722 | 0.297 | 0.37 | 0.621 | 0.158 | 0.0039 | 0.0156 | -0.116 | -0.027 | -0.0345
2 | N#Cc1cnc(Nc2cc(NC[C@H]3CNCCO3)c(C(F)(F)F)cn2)cn1 [SRA737] + CCc1c2c(nc3ccc(O)cc13)-c1cc3c(c(=O)n1C2)COC(=O)[C@]3(O)CC [SN-38] (first compound max 10 µM, 7x7, partner max 0.3 µM) | 0.525 | 0.974 | 1 | 0.95 | 1 | 0.925 | 0.548 | 0.599 | 0.947 | 0.723 | 0.836 | 0.541 | 0.821 | 0.829 | 0.953 | -0.0193 | 0.0337 | -0.0549 | 0.0034 | 0.0321
3 | CN(CCO)CC[C@H](CSc1ccccc1)Nc1ccc(S(=O)(=O)NC(=O)c2ccc(N3CCC([C@@H](O)c4ccccc4-c4ccc(Cl)cc4)CC3)cc2)cc1S(=O)(=O)C(F)(F)F [AZD4320] + C[C@@H]1COCCN1C2=NC(=NC(=C2)C3(CC3)[S@](=N)(=O)C)C4=C5C=CNC5=NC=C4 [AZD6738] (first compound max 1 µM, 7x7, partner max 10 µM) | 0.656 | 0.715 | 1 | 0.564 | 1 | 0.794 | 0.541 | 0.77 | 0.624 | 0.771 | 0.874 | 0.433 | 0.937 | 0.886 | 0.983 | -0.0358 | -0.0555 | 0.0597 | -0.0396 | -0.0443
4 | CN(CCO)CC[C@H](CSc1ccccc1)Nc1ccc(S(=O)(=O)NC(=O)c2ccc(N3CCC([C@@H](O)c4ccccc4-c4ccc(Cl)cc4)CC3)cc2)cc1S(=O)(=O)C(F)(F)F [AZD4320] + C[C@@H](Nc1cc(F)cc(F)c1)c1cc(C(=O)N(C)C)cc2c(=O)cc(N3CCOCC3)oc12 [AZD8186] (first compound max 1 µM, 7x7, partner max 3 µM) | 0.771 | 0.373 | 0.982 | 0.338 | 0.999 | 0.727 | 0.419 | 0.34 | 0.293 | 0.256 | 0.493 | 0.381 | 0.989 | 0.928 | 0.977 | -0.0007 | -0.0481 | 0.0182 | -0.086 | 0.0168
5 | C[C@@H](c1ccc2nccn2c1)n1nnc2ncc(-c3cnn(C)c3)nc21 [Savolitinib] + Cc1c2c(nn1C)CSCc1cc(n(C)n1)CSc1cc(c3ccccc3c1)OCCCc1c(C(=O)O)n(C)c3c-2c(Cl)ccc13 [AZD5991] (first compound max 1 µM, 7x7, partner max 1 µM) | 0.209 | 1 | 0.491 | 0.114 | 1 | 0.343 | 0.342 | 0.207 | 0.201 | 0.163 | 0.303 | 0.163 | 0.129 | 0.119 | 0.257 | -0.0473 | -0.0353 | -0.0082 | 0.0359 | -0.0858
6 | Cc1cc2ncnn2cc1Nc1ncc2c(n1)n(C1CCOCC1)c(=O)n2C [AZD7648] + C[C@@H]1COCCN1C2=NC(=NC(=C2)C3(CC3)[S@](=N)(=O)C)C4=C5C=CNC5=NC=C4 [AZD6738] (first compound max 10 µM, 7x7, partner max 10 µM) | 0.518 | 0.765 | 1 | 0.442 | 0.968 | 0.795 | 0.388 | 0.661 | 0.496 | 0.687 | 0.873 | 0.488 | 0.569 | 0.73 | 0.579 | 0.0397 | 0.0231 | -0.0817 | 0.0717 | -0.0236
7 | CN(CCO)CC[C@H](CSc1ccccc1)Nc1ccc(S(=O)(=O)NC(=O)c2ccc(N3CCC([C@@H](O)c4ccccc4-c4ccc(Cl)cc4)CC3)cc2)cc1S(=O)(=O)C(F)(F)F [AZD4320] + CC(=O)O[C@H]1C(=O)[C@@]2(C)[C@H]([C@H](OC(=O)c3ccccc3)[C@]3(O)C[C@H](OC(=O)[C@H](O)[C@@H](NC(=O)c4ccccc4)c4ccccc4)C(C)=C1C3(C)C)[C@]1(OC(C)=O)CO[C@@H]1C[C@@H]2O [Paclitaxel] (first compound max 1 µM, 7x7, partner max 3 µM) | 0.733 | 0.97 | 1 | 1 | 1 | 0.993 | 1 | 0.984 | 0.95 | 0.651 | 0.99 | 0.714 | 1 | 1 | 0.998 | 0.0095 | 0.0246 | -0.0009 | -0.0104 | 0.0767
8 | COc1cc2ncnc(Nc3ccc(F)c(Cl)c3)c2cc1OCCCN1CCOCC1 [Gefitinib] + CC(C)n1c(=O)n(C)c2cnc3cc(F)c(-c4ccc(OCCCN5CCCCC5)nc4)cc3c21 [AZD1390] (first compound max 10 µM, 7x7, partner max 0.3 µM) | 0.0966 | 0.307 | 0.373 | 0.42 | 0.168 | 0.115 | 0.169 | 0.133 | 0.131 | 0.0902 | 0.368 | 0.198 | 0.178 | 0.316 | 0.176 | -0.0702 | -0.0551 | -0.0237 | -0.0401 | -0.0714
9 | N#Cc1cnc(Nc2cc(NC[C@H]3CNCCO3)c(C(F)(F)F)cn2)cn1 [SRA737] + Nc1ccn([C@@H]2O[C@H](CO)[C@@H](O)C2(F)F)c(=O)n1 [Gemcitabine] (first compound max 10 µM, 7x7, partner max 0.3 µM) | 0.733 | 0.976 | 1 | 0.9 | 1 | 0.986 | 0.663 | 0.644 | 0.905 | 0.828 | 0.947 | 0.585 | 0.737 | 0.905 | 0.84 | 0.042 | 0.102 | 0.061 | 0.0876 | 0.102
10 | COc1cc2c(cc1OCCCCCOc1cc3c(cc1OC)C(=O)N1C=C(C)C[C@H]1C=N3)N=C[C@@H]1CC(C)=CN1C2=O [SG3199] + O=C(c1cc(Cc2n[nH]c(=O)c3ccccc23)ccc1F)N1CCN(C(=O)C2CC2)CC1 [Olaparib] (first compound max 0.001 µM, 7x7, partner max 10 µM) | 0.0927 | 0.157 | 0.402 | 0.201 | 0.436 | 0.307 | 0.104 | 0.104 | 0.0788 | 0.108 | 0.475 | 0.176 | 0.322 | 0.43 | 0.163 | -0.0251 | -0.0245 | 0.0179 | -0.0081 | -0.0533
11 | Cc1cc2ncnn2cc1Nc1ncc2c(n1)n(C1CCOCC1)c(=O)n2C [AZD7648] + COc1cc([C@@H]2c3cc4c(cc3[C@@H](O[C@@H]3O[C@@H]5CO[C@@H](C)O[C@H]5[C@H](O)[C@H]3O)[C@H]3COC(=O)[C@H]23)OCO4)cc(OC)c1O [Etoposide] (first compound max 10 µM, 7x7, partner max 10 µM) | 0.478 | 0.937 | 1 | 0.941 | 0.955 | 0.9 | 0.22 | 0.535 | 0.817 | 0.588 | 0.863 | 0.438 | 0.909 | 0.861 | 0.862 | 0.0859 | 0.0178 | 0.125 | 0.164 | -0.0126
